Source: patent publication US20230257396A1, “MACROCYCLES AND THEIR USE” (BLOSSOMHILL THERAPEUTICS, INC., priority 2020, published 2023)
Positions count from the first letter of the chain named.

Legend:
Assay in all cases: KINOMEscan kinase binding assay (Eurofins/DiscoveRx), % Ctrl
kinases [1] = biological target: T1, kinases (Homo sapiens, UniProt P36888, R834Q)
T1 construct: purchased Eurofins/DiscoveRx; host or cells: E. coli BL21-derived host (T7 phage display) for most kinases; HEK-293 for the rest
T1 sequence (P36888 27-993 R834Q): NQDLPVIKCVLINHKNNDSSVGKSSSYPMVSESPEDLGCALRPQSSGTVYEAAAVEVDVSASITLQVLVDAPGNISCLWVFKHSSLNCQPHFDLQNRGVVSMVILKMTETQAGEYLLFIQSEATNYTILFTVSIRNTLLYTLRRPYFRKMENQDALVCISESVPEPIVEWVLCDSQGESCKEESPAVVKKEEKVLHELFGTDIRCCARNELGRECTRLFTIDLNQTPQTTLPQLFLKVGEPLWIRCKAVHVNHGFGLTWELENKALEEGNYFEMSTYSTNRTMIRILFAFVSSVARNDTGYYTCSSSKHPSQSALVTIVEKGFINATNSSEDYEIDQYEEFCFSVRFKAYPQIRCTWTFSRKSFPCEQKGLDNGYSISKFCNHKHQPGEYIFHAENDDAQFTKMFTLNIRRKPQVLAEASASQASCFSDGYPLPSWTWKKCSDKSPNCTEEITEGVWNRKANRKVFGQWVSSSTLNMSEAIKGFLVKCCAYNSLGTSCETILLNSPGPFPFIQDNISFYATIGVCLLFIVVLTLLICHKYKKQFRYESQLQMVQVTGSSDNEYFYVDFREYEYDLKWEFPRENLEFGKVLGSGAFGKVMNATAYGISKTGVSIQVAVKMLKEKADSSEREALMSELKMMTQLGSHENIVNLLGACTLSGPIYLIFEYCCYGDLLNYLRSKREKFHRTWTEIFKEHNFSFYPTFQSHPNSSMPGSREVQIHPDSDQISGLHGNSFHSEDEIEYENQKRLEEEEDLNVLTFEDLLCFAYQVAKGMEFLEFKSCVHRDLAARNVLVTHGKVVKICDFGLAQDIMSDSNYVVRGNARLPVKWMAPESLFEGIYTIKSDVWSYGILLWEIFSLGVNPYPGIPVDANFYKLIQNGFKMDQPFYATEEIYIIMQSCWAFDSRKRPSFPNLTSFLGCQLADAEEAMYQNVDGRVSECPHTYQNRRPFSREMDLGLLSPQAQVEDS
How it was run: (§1)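 Read-out is qPCR of kinase eluted from ligand-coated streptavidin beads after 1 h room-temperature competition with test compound. Values are % Ctrl at the tested concentration, lower meaning tighter binding.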

kinases [2] = biological target: T2, kinases (Homo sapiens, UniProt P07949, V804L)
T2 construct: purchased Eurofins/DiscoveRx; host or cells: E. coli BL21-derived host (T7 phage display) for most kinases; HEK-293 for the rest
How it was run: as §1

kinases [3] = biological target: T3, kinases (Homo sapiens, UniProt P36888, D835H)
T3 construct: purchased Eurofins/DiscoveRx; host or cells: E. coli BL21-derived host (T7 phage display) for most kinases; HEK-293 for the rest
T3 sequence (P36888 27-993 D835H): T1 sequence (P36888 27-993 R834Q) with Q808R, D809H
How it was run: as §1

kinases [4] = biological target: T4, kinases (Homo sapiens, UniProt P17948)
T4 construct: purchased Eurofins/DiscoveRx; host or cells: E. coli BL21-derived host (T7 phage display) for most kinases; HEK-293 for the rest
How it was run: as §1

kinases [5] = biological target: T5, kinases (Homo sapiens, UniProt P00533, T790M)
T5 construct: purchased Eurofins/DiscoveRx; host or cells: E. coli BL21-derived host (T7 phage display) for most kinases; HEK-293 for the rest
How it was run: as §1

kinases [6] = biological target: T6, kinases (Homo sapiens, UniProt P00519, F317L)
T6 construct: purchased Eurofins/DiscoveRx; host or cells: E. coli BL21-derived host (T7 phage display) for most kinases; HEK-293 for the rest
How it was run: as §1

[7] = 1 μM; ABL1(F317L)-nonphosphorylated
[8] = 1 μM; ABL1(F317L)-phosphorylated

T4 sequence (P17948 27-1338): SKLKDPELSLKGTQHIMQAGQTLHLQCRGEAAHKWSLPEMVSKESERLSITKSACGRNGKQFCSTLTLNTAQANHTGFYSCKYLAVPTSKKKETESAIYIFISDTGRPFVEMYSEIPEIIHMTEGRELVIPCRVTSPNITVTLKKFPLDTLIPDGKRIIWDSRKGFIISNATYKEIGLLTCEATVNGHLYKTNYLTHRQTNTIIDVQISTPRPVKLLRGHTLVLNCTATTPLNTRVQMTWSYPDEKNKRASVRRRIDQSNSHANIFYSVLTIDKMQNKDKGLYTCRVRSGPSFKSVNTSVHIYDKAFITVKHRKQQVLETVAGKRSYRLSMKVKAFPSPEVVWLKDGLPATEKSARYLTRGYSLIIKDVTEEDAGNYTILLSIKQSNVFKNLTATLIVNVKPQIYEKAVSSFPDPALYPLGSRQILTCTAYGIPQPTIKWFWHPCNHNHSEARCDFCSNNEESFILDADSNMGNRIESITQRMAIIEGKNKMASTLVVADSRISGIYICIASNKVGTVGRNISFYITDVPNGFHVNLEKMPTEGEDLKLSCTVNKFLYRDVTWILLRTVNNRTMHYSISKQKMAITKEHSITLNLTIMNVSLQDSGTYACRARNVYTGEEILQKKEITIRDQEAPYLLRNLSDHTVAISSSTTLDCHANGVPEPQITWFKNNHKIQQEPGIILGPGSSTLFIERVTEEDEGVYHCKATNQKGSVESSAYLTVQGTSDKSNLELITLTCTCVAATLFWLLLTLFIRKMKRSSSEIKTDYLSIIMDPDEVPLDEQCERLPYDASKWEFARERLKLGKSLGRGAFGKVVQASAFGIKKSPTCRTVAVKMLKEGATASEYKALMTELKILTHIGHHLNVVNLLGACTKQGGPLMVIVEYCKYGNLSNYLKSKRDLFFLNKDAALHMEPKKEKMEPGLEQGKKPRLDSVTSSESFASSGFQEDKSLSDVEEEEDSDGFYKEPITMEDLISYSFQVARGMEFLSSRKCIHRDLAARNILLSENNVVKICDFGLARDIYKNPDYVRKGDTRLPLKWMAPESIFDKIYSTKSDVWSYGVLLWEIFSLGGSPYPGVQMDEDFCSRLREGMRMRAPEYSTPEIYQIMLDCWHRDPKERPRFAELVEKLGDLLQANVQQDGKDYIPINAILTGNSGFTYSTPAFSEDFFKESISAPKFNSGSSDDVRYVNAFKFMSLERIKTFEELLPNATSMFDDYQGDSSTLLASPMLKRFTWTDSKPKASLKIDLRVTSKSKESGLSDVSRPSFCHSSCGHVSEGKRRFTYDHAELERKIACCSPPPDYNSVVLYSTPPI
T2 sequence (P07949 29-1114 V804L): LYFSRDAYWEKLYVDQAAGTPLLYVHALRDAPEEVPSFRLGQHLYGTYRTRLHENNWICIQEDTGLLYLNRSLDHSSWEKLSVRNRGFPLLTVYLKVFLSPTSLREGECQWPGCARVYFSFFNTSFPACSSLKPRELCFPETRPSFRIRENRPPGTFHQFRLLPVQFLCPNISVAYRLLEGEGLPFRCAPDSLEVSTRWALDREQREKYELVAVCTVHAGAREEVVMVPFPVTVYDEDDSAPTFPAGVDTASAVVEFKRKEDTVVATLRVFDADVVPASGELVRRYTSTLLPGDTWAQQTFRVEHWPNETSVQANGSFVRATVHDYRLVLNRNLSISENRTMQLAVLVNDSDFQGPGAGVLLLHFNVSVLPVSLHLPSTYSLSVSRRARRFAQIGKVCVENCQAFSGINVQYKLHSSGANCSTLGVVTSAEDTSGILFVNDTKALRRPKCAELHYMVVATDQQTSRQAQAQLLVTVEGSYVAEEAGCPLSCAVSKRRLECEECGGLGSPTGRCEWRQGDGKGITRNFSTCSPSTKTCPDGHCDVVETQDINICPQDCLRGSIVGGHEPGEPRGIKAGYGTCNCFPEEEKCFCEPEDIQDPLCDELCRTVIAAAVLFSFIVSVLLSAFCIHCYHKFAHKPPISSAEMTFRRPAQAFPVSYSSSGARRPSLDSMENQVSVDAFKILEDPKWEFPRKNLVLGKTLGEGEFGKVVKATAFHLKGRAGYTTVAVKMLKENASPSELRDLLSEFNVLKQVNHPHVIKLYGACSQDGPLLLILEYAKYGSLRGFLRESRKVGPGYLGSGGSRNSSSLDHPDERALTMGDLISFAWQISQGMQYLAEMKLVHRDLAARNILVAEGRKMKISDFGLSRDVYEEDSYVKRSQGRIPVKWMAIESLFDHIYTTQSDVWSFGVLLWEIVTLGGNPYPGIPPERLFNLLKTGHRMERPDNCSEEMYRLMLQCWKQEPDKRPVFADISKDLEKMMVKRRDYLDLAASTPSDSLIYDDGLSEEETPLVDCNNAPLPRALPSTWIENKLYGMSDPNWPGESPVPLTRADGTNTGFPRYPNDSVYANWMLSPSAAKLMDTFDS
T6 sequence (P00519 whole entry F317L): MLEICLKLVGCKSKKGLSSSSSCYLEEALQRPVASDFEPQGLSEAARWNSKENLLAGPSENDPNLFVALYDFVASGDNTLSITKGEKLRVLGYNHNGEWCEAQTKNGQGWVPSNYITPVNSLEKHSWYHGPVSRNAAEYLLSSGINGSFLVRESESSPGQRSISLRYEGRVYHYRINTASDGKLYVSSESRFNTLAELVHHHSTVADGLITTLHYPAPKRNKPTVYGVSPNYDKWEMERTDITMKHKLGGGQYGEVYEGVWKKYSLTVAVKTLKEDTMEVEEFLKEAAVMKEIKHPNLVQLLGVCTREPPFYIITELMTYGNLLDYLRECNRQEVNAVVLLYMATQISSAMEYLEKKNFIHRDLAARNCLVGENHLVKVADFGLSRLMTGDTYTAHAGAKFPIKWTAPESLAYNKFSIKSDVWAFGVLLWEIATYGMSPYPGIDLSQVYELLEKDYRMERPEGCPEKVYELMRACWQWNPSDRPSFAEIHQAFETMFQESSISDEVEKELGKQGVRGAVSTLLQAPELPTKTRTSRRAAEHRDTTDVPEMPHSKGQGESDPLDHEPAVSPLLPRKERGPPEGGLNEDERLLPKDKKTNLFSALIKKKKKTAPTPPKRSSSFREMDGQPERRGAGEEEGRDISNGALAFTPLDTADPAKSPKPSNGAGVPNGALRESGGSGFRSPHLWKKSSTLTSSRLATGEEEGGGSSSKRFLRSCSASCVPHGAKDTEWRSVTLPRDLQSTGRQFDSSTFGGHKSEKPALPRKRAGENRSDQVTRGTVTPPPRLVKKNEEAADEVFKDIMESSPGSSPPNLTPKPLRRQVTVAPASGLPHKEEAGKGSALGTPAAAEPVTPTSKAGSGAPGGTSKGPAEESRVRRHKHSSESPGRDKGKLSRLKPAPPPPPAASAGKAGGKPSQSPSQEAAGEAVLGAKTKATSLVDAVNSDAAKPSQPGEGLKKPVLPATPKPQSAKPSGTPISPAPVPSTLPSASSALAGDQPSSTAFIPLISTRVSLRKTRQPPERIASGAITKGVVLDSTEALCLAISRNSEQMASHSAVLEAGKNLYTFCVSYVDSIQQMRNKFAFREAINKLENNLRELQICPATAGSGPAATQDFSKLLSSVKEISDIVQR

Cc1cc2c([nH]1)/C=C1\C(=O)Nc3ccc(cc31)-c1cnn(C)c1CN(C)CCN(C)C2=O [Ex. 126, [3a(4)Z]-6,9,12,14-tetramethyl-9,10,11,12,13,14-hexahydro-1,17-(ethanediylidene)pyrazolo[4,3-m]dipyrrolo[3,2-f:3′,4′-i][1,4]diazacyclopentadecine-3,8(2H,5H)-dione]
% Ctrl, FLT3(R834Q) (kinases [1]; 1 μM; FLT3(R834Q)): 0 % Ctrl | % Ctrl, RET(V804L) (kinases [2]; 1 μM; RET(V804L)): 0 % Ctrl | % Ctrl, FLT3(D835H) (kinases [3]; 1 μM; FLT3(D835H)): 0.05 % Ctrl | % Ctrl, FLT1 (kinases [4]; 1 μM; FLT1): 0.65 % Ctrl | % Ctrl, EGFR(T790M) (kinases [5]; 1 μM; EGFR(T790M)): 1.6 % Ctrl | % Ctrl, ABL1(F317L)-nonphosphorylated (kinases [6]; [7]): 1.7 % Ctrl | % Ctrl, ABL1(F317L)-phosphorylated (kinases [6]; [8]): 0 % Ctrl

Cc1cc2c([nH]1)/C=C1\C(=O)Nc3ccc(cc31)-c1c(C)n[nH]c1CNCCN(C)C2=O [Ex. 127, [3a(4)Z]-6,9,16-trimethyl-9,10,11,12,13,14-hexahydro-1,17-(ethanediylidene)pyrazolo[4,3-m]dipyrrolo[3,2-f:3′,4′-i][1,4]diazacyclopentadecine-3,8(2H,5H)-dione]
% Ctrl, FLT3(R834Q) (kinases [1]; 1 μM; FLT3(R834Q)): 13 % Ctrl | % Ctrl, RET(V804L) (kinases [2]; 1 μM; RET(V804L)): 0.55 % Ctrl | % Ctrl, FLT3(D835H) (kinases [3]; 1 μM; FLT3(D835H)): 0.15 % Ctrl | % Ctrl, FLT1 (kinases [4]; 1 μM; FLT1): 54 % Ctrl | % Ctrl, EGFR(T790M) (kinases [5]; 1 μM; EGFR(T790M)): 9.2 % Ctrl | % Ctrl, ABL1(F317L)-nonphosphorylated (kinases [6]; [7]): 4.1 % Ctrl | % Ctrl, ABL1(F317L)-phosphorylated (kinases [6]; [8]): 0.8 % Ctrl

Cc1cc2c([nH]1)/C=C1\C(=O)Nc3ccc(cc31)OCCOCCNC2=O [Ex. 129, [16a(17)Z]-2-methyl-6,7,9,10-tetrahydro-1H-12,14-(ethanediylidene)dipyrrolo[3,2-i:3′,4′-l][1,4,7]dioxazacyclopentadecine-4,16(5H,15H)-dione]
% Ctrl, FLT3(R834Q) (kinases [1]; 1 μM; FLT3(R834Q)): 84 % Ctrl | % Ctrl, RET(V804L) (kinases [2]; 1 μM; RET(V804L)): 96 % Ctrl | % Ctrl, FLT3(D835H) (kinases [3]; 1 μM; FLT3(D835H)): 44 % Ctrl | % Ctrl, FLT1 (kinases [4]; 1 μM; FLT1): 99 % Ctrl | % Ctrl, EGFR(T790M) (kinases [5]; 1 μM; EGFR(T790M)): 100 % Ctrl | % Ctrl, ABL1(F317L)-nonphosphorylated (kinases [6]; [7]): 93 % Ctrl | % Ctrl, ABL1(F317L)-phosphorylated (kinases [6]; [8]): 79 % Ctrl

Cc1cc2c([nH]1)/C=C1\C(=O)Nc3ccc(cc31)-c1cnn(C)c1OCCCN(C)C2=O [Ex. 166, [3a(4)Z]-9,14-dimethyl-9,10,11,12-tetrahydro-14H-1,17-(ethanediylidene)pyrazolo[4,3-n]dipyrrolo[3,2-g:3′,4′-j][1,5]oxazacyclopentadecine-3,8(2H,5H)-dione]
% Ctrl, FLT3(R834Q) (kinases [1]; 1 μM; target FLT3(R834Q)): 2.1 % Ctrl | % Ctrl, RET(V804L) (kinases [2]; 1 μM; target RET(V804L)): 0.3 % Ctrl | % Ctrl, FLT3(D835H) (kinases [3]; 1 μM; target FLT3(D835H)): 0.7 % Ctrl | % Ctrl, FLT1 (kinases [4]; 1 μM; target FLT1): 79 % Ctrl | % Ctrl, EGFR(T790M) (kinases [5]; 1 μM; target EGFR(T790M)): 26 % Ctrl | % Ctrl, ABL1(F317L)-nonphosphorylated (kinases [6]; 1 μM; target ABL1(F317L)-nonphosphorylated): 41 % Ctrl | % Ctrl, ABL1(F317L)-phosphorylated (kinases [6]; 1 μM; target ABL1(F317L)-phosphorylated): 8.7 % Ctrl

Cc1cc2c([nH]1)/C=C1\C(=O)Nc3ccc(cc31)CN(C)C(=O)COCCNC2=O [Ex.111, [17a(18)Z]-2,11-dimethyl-6,7,11,12-tetrahydro-1H-13,15-(ethanediylidene)dipyrrolo[3,2-f:3′,4′-i][1,4,14]oxadiazacyclohexadecine-4,10,17(5H,9H,16H)-trione]
% Ctrl, FLT3(R834Q) (kinases [1]; 1 μM; FLT3(R834Q)): 39 % Ctrl | % Ctrl, RET(V804L) (kinases [2]; 1 μM; RET(V804L)): 71 % Ctrl | % Ctrl, FLT3(D835H) (kinases [3]; 1 μM; FLT3(D835H)): 20 % Ctrl | % Ctrl, FLT1 (kinases [4]; 1 μM; FLT1): 46 % Ctrl | % Ctrl, EGFR(T790M) (kinases [5]; 1 μM; EGFR(T790M)): 68 % Ctrl | % Ctrl, ABL1(F317L)-nonphosphorylated (kinases [6]; [7]): 87 % Ctrl | % Ctrl, ABL1(F317L)-phosphorylated (kinases [6]; [8]): 100 % Ctrl

Cc1cc2c([nH]1)/C=C1\C(=O)Nc3cnc(nc31)N(C)CCCOCCN(C)C2=O [Ex.71, [17a(18)Z]-2,5,12-trimethyl-6,7,9,10,11,12-hexahydro-1H-13,15-(azenometheno)dipyrrolo[3,2-f:3′,4′-i][1,4,11,13]oxatriazacyclohexadecine-4,17(5H,16H)-dione]
% Ctrl, FLT3(R834Q) (kinases [1]; 1 μM; FLT3(R834Q)): 100 % Ctrl | % Ctrl, RET(V804L) (kinases [2]; 1 μM; RET(V804L)): 95 % Ctrl | % Ctrl, FLT3(D835H) (kinases [3]; 1 μM; FLT3(D835H)): 99 % Ctrl | % Ctrl, FLT1 (kinases [4]; 1 μM; FLT1): 98 % Ctrl | % Ctrl, EGFR(T790M) (kinases [5]; 1 μM; EGFR(T790M)): 100 % Ctrl | % Ctrl, ABL1(F317L)-nonphosphorylated (kinases [6]; [7]): 100 % Ctrl | % Ctrl, ABL1(F317L)-phosphorylated (kinases [6]; [8]): 100 % Ctrl

Cc1cc2c([nH]1)/C=C1\C(=O)Nc3ccc(cc31)-c1cnn(C)c1CNCCN(C)C2=O [Ex. 125, [3a(4)Z]-6,9,14-trimethyl-9,10,11,12,13,14-hexahydro-1,17-(ethanediylidene)pyrazolo[4,3-m]dipyrrolo[3,2-f:3′,4′-i][1,4]diazacyclopentadecine-3,8(2H,5H)-dione]
% Ctrl, FLT3(R834Q) (kinases [1]; 1 μM; FLT3(R834Q)): 0.3 % Ctrl | % Ctrl, RET(V804L) (kinases [2]; 1 μM; RET(V804L)): 0 % Ctrl | % Ctrl, FLT3(D835H) (kinases [3]; 1 μM; FLT3(D835H)): 0.05 % Ctrl | % Ctrl, FLT1 (kinases [4]; 1 μM; FLT1): 11 % Ctrl | % Ctrl, EGFR(T790M) (kinases [5]; 1 μM; EGFR(T790M)): 11 % Ctrl | % Ctrl, ABL1(F317L)-nonphosphorylated (kinases [6]; [7]): 0 % Ctrl | % Ctrl, ABL1(F317L)-phosphorylated (kinases [6]; [8]): 0.55 % Ctrl

Cc1cc2c([nH]1)/C=C1\C(=O)Nc3cc(Cl)c(cc31)OCCO[C@@H](C(=O)N1CCN(C)CC1)CN(C)C2=O [Ex. 138, [7R,16a(17)Z]-19-chloro-2,5-dimethyl-7-(4-methylpipearazine-1-carbonyl)-6,7,9,10-tetrahydro-1H-12,14-(ethanediylidene)dipyrrolo[3,2-i:3′,4′-l][1,4,7]dioxazacyclopentadecine-4,16(5H,15H)-dione]
% Ctrl, FLT3(R834Q) (kinases [1]; target FLT3(R834Q); 1 μM): 99 % Ctrl | % Ctrl, RET(V804L) (kinases [2]; target RET(V804L); 1 μM): 83 % Ctrl | % Ctrl, FLT3(D835H) (kinases [3]; target FLT3(D835H); 1 μM): 73 % Ctrl | % Ctrl, FLT1 (kinases [4]; target FLT1; 1 μM): 96 % Ctrl | % Ctrl, EGFR(T790M) (kinases [5]; target EGFR(T790M); 1 μM): 94 % Ctrl | % Ctrl, ABL1(F317L)-nonphosphorylated (kinases [6]; target ABL1(F317L)-nonphosphorylated; 1 μM): 69 % Ctrl | % Ctrl, ABL1(F317L)-phosphorylated (kinases [6]; target ABL1(F317L)-phosphorylated; 1 μM): 75 % Ctrl

Cc1cc2c([nH]1)/C=C1\C(=O)Nc3cc(Cl)c(cc31)OCCO[C@@H](C(=O)NC1CNC1)CN(C)C2=O [Ex. 133, [7R,16a(17)Z]-N-(azetidin-3-yl)-19-chloro-2,5-dimethyl-4,16-dioxo-4,5,6,7,9,10,15,16-octahydro-1H-12,14-(ethanediylidene)dipyrrolo[3,2-i:3′,4′-l][1,4,7]dioxazacyclopentadecine-7-carboxamide]
% Ctrl, FLT3(R834Q) (kinases [1]; 1 μM; FLT3(R834Q)): 49 % Ctrl | % Ctrl, RET(V804L) (kinases [2]; 1 μM; RET(V804L)): 58 % Ctrl | % Ctrl, FLT3(D835H) (kinases [3]; 1 μM; FLT3(D835H)): 39 % Ctrl | % Ctrl, FLT1 (kinases [4]; 1 μM; FLT1): 89 % Ctrl | % Ctrl, EGFR(T790M) (kinases [5]; 1 μM; EGFR(T790M)): 98 % Ctrl | % Ctrl, ABL1(F317L)-nonphosphorylated (kinases [6]; [7]): 77 % Ctrl | % Ctrl, ABL1(F317L)-phosphorylated (kinases [6]; [8]): 88 % Ctrl
